Experimental data as given in PubChem BioAssay (NCI).
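These data come from cells grown in 96-well plates and exposed to compound for 48 hours at five concentrations. Abbreviation: GI50, concentration required for 50% inhibition of growth. TGI marks complete inhibition of growth.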

What was measured:
Assay in all cases: DTP human tumour cell line panel, 48 h
[1] = system: A498 renal
[2] = system: IGROV1 ovarian
[3] = system: NCI-H226 lung
[4] = system: NCI-H23 lung
[5] = system: SF-268 CNS
[6] = system: SK-MEL-5 melanoma
[7] = system: NCI-H522 lung
[8] = system: OVCAR-4 ovarian
[9] = system: RXF 393 renal

SMILES	TGI [1] [µM]	TGI [2] [µM]	TGI [3] [µM]	TGI [4] [µM]	TGI [5] [µM]	TGI [6] [µM]	TGI [7] [µM]	TGI [8] [µM]	TGI [9] [µM]	GI50 [2] [µM]	GI50 [3] [µM]	GI50 [7] [µM]	GI50 [8] [µM]	GI50 [9] [µM]	GI50 [5] [µM]	GI50 [6] [µM]
c1ccc2c(c1)CCc1c(-c3ccncc3)n[nH]c1-2	79.8	89.2	55.6	58.3	> 100	32.1	–	–	–	–	–	–	–	–	–	–
COc1cc(OC)c(OC)cc1/C=N/NC(=O)N/N=C/c1cc(OC)c(OC)cc1OC	> 100	> 100	> 100	> 100	> 100	> 100	86.5	> 100	–	–	–	–	–	–	–	–
COc1cc(C[P+](c2ccccc2)(c2ccccc2)c2ccccc2)cc(OC)c1OC	–	> 100	> 100	> 100	> 100	> 100	> 100	> 100	> 100	–	–	–	–	–	–	–
O=c1[nH]c(O)c(C=Nc2ccc(-c3nc4ccccc4o3)cc2)c(=O)[nH]1	–	> 100	> 100	–	> 100	> 100	> 100	> 100	> 100	> 100	90.3	30.9	33	89	> 100	44.8
CC[C@@H]1NC(C(=O)OC)Cc2c1[nH]c1ccccc21 (stereo partly drawn)	> 100	> 100	> 100	> 100	–	> 100	–	> 100	–	–	–	–	–	–	–	–
Cc1cc2c(cc1C)[n+](=O)cc(C(=O)C/C(=N/NC(=S)NN)C(=O)Nc1cccc(C(F)(F)F)c1)n2[O-]	> 100	> 100	> 100	> 100	> 100	> 100	> 100	> 100	–	–	–	–	–	–	–	–
COC(=N)c1csc(C2OC(CO)C(O)C2O)n1 (stereo not drawn)	> 100	> 100	> 100	> 100	> 100	–	> 100	> 100	–	–	–	–	–	–	–	–
CC(=O)N/C(=C\c1ccccc1/C=C(\NC(C)=O)c1nc2cc(C)c(C)cc2[nH]1)c1nc2cc(C)c(C)cc2[nH]1	> 100	66.3	> 100	94.9	> 100	43	24	–	–	–	–	–	–	–	–	–
COCOCCC#CCO	> 100	> 100	–	> 100	> 100	> 100	> 100	–	> 100	–	–	–	–	–	–	–
CN(C)CCNC(=O)Cc1ccccc1Nc1c(Cl)cccc1Cl	–	38.4	34.3	33.4	36.2	30.2	–	50.6	31.9	–	–	–	–	–	–	–
